Source: the supplement of paper PMC10307832

Assays:
Experiment in all cases: relative viability (nuclei count vs DMSO), 5 days (fraction); higher = more cells survive
[1] = compound: C1=CC(=CC=C1NC(=S)NNC2=C(C=C(C=C2[N+](=O)[O-])C(F)(F)F)[N+](=O)[O-])F [Kobe2602]
Procedure, shortened: (§1)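 Lung cancer cell lines in 1536-well plates were kept overnight at 37 °C, then pinned with five library-drug doses (not always all listed) spaced by √10 on vehicle-anchored plates. After 5 days without medium change, cells were fixed, permeabilised and Hoechst-stained in one step, imaged at 4×, and nuclei were counted with MetaXpress. Viability is treated-well nuclei divided by vehicle-well nuclei, taken as the median over plates. Plates passed only with control CV below 25% and at least one doubling.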

[2] = compound: O[C@@H](COc1cccc2ncccc12)CN1CCN([C@@H]2c3ccccc3[C@@H]3[C@H](c4ccccc42)C3(F)F)CC1 [Zosuquidar]
Procedure, shortened: as §1

[3] = compound: COc1cc2nccc(Oc3ccc(NC(=O)C4(C(=O)Nc5ccc(F)cc5)CC4)cc3)c2cc1OC [Cabozantinib]
Procedure, shortened: as §1

[4] = compound: C1=CC(=CC=C1NC(=S)NNC2=C(C=C(C=C2[N+](=O)[O-])C(F)(F)F)[N+](=O)[O-])F [Kobe2602] + Cc1nc(NC(=O)N2CCC[C@H]2C(N)=O)sc1-c1ccnc(C(C)(C)C(F)(F)F)c1 [Alpelisib] (partner 2 µM)
Procedure, shortened: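 Cells from lung cancer lines were seeded into 1536-well plates and, one day later, dosed by pin tool. Treatments were either a single drug or a fixed dose of an anchor drug with five library-drug doses (not always all listed) in √10 steps. After 5 days, nuclei were stained in a one-step fixation (final 0.05% Triton X-100, 1% formaldehyde, 1 ug/ml Hoechst) and counted on 4× images, and relative viability is the treated-to-vehicle nuclei ratio, as the median of duplicate plates.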

Cell Line	relative viability ([1]; 0.2 µM)	relative viability ([1]; 0.6325 µM)	relative viability ([1]; 2 µM)	relative viability ([1]; 6.325 µM)	relative viability ([1]; 20 µM)	relative viability ([2]; 0.01 µM)	relative viability ([2]; 0.03162 µM)	relative viability ([2]; 0.1 µM)	relative viability ([2]; 0.3162 µM)	relative viability ([2]; 1 µM)	relative viability ([3]; 0.02 µM)	relative viability ([3]; 0.06325 µM)	relative viability ([3]; 0.2 µM)	relative viability ([3]; 0.6325 µM)	relative viability ([3]; 2 µM)	relative viability ([4]; first compound 0.2 µM)	relative viability ([4]; first compound 0.6325 µM)	relative viability ([4]; first compound 2 µM)	relative viability ([4]; first compound 6.325 µM)	relative viability ([4]; first compound 20 µM)
NCI-H2009	1.02	1.08	0.966	1.04	0.99	1.02	0.945	0.929	1.06	0.971	1.08	1.06	1.08	1.07	1.15	1.12	1.22	1.13	1.3	1.18
NCI-H2405	1.04	1.09	0.964	1.09	1.14	1.1	0.942	0.981	1.03	0.93	0.807	1.11	1.09	1.01	1.08	0.748	0.94	0.721	0.896	0.831
NCI-H1563	0.899	1	0.96	0.971	0.981	0.936	0.929	0.974	1.13	0.865	0.99	0.977	1.04	0.915	1.01	0.939	0.917	0.871	0.839	1.08
NCI-H1944	1	1.07	0.899	0.992	0.987	0.942	0.88	0.847	1.08	0.909	0.826	1.01	0.961	1.01	0.916	0.803	0.884	0.885	0.805	0.944
NCI-H322M	0.97	1.07	1.03	0.984	1.08	0.907	1.07	0.667	0.924	0.916	0.874	1.17	0.694	0.983	0.952	0.808	0.81	0.828	0.827	0.792
NCI-H2085	1.02	0.994	0.959	0.991	0.96	0.977	0.955	0.797	1	0.959	1.07	1.09	0.942	1.05	1.01	1.04	0.99	0.894	1.01	1.05
RERF-LC-KJ	0.981	0.943	0.959	0.9	0.906	0.943	1.03	1.03	1.04	0.971	1.02	1.1	0.935	0.996	0.994	0.829	0.792	0.742	0.865	0.779
NCI-H1355	0.914	1.01	0.911	0.965	0.959	0.99	0.967	0.843	1.06	0.973	0.954	1.11	0.977	0.96	0.961	0.791	0.938	0.79	0.751	0.845
